{"source": "patent US20240180872A1", "about": "“METHODS AND COMPOUNDS OF CANNABIDIOL, MELATONIN AND AKBA FOR TREATING PANCREATIC CANCER” (priority 2021, published 2024)", "key": {"[1]": {"system": "pancreatic adenocarcinoma associated genes", "assay": "TaqMan Array gene expression in MIAPaCa-2, normalized for GAPDH", "type": "cell-based, Human", "settings": "Mia-PACA-2, 24 hs, CBD 3.8, MLT 200, AKBA 7.5 micrograms/ml", "protocol": "Total RNA from untreated or CBD, MLT, AKBA alone and in combination treated cell lines was extracted using Rneasy Mini kit (Qiagen, Milan, Italy). One microgram of total RNA from each sample was subjected to reverse transcription in a total volume of 20 μL using the High-Capacity cDNA Archive Kit (Applied Biosystem, Foster City, […], USA) according to the instructions. cDNAs were analyzed by qRT-PCR performed using an IQ5 Multicolor Real time PCR Detection system. Quantitative real-time gene expression was performed with the TaqMan® Array Human Pancreatic Adenocarcinoma 96-well Plate, containing 92 assays to pancreatic adenocarcinoma associated genes and 4 assays to candidate endogenous control genes, was purchased (Thermo Fisher, Grand Island, NY, USA) and used to evaluate the treatments in modulating PDAC-related genes (Table 1). Measurement of different housekeeping genes (GAPDH; HPRT1; GUSB) on the samples was used to normalize mRNA content. The gene expression levels of treated cell lines were expressed as relative fold compared with untreated or vehicle-treated cells.\nTo elucidate the molecular events induced by CBD, MLT and AKBA alone and in combination, 92 genes involved in PDAC progression and aggressiveness were evaluated by Taqman Array. Both cell lines were treated with CBD, MLT and AKBA alone and in combination, and the molecular pathways of PDAC associated gene were evaluated.\nTarget mRNA levels were normalized for GAPDH expression."}, "PANC-1 cell line": {"system": "PANC-1 cell line", "assay": "Cytotoxicity assay (MTT, 72 hours, daily administration) in PANC-1", "settings": "Homo sapiens, PANC-1, read-out: % VIABILITY ± S.D.", "method": "Human pancreatic ductal adenocarcinoma (PANC-1 and MIAPaCa-2) cell lines were purchased by Sigma Aldrich (Milan, Italy) and cultured in DMEM high glucose medium (EuroClone, Milan, Italy) supplemented with 10% of fetal bovine serum (FBS), 2 mM L-glutamine, 100 IU/mL penicillin, 100 mg streptomycin and 1 mM sodium pyruvate. Cell lines were maintained at 37° C. with 5% CO2 and 95% of humidity.\n3×10^4 cells/mL were seeded in 96-well plates in a final volume of 100 L/well. After one day of incubation, compounds or vehicles, alone or in combination, were added and six replicates were used for each treatment and all experiments were repeated three times. In all the experiments, the treatment was daily added, after washing with fresh medium. After 72 hours cell viability was investigated by adding 0.8 mg/mL of 3-[4,5-dimethylthiazol-2-yl]-2,5 diphenyl tetrazolium bromide (MTT) (Sigma Aldrich) to the media. After 3 h the supernatant was removed, and the pellet of salt crystals was solubilized with 100 μL/well of DMSO. The absorbance of the sample against a background control was measured at 570 nm using an ELISA reader microliter plate (BioTek Instruments, Winooski, VT, USA).\nCytotoxicity in PDAC cell lines: The effect of CBD, MLT and AKBA in reducing cell viability was evaluated at 72 hours, post daily administration, in PDAC cell lines. Cells were treated with different doses of CBD, MLT and AKBA (up to 1 mg) and percentage of cell viability was evaluated by the MTT assay. […] The compounds were administered daily for 72 hours, as in previous experiments at the desired doses. […] MTT assay was used to analyse the cell cytotoxicity."}, "[2]": {"system": "U251 Glioblastoma cell line", "assay": "Cytotoxicity assay (MTT, 72 hours, daily administration) in U251", "type": "cell-based", "settings": "Homo sapiens, U-251, read-out: % VIABILITY ± S.D.", "description": "The combinations were effective in other human tumor cell lines and we tested in glioblastoma cell line and endometrial cancer cell Additional tests include data obtained from two independent experiments, six wells for dose."}, "[3]": {"settings": "normalized for GAPDH, Akt pathways"}, "[4]": {"settings": "normalized for GAPDH, Akt-pathways"}, "[5]": {"settings": "normalized for GAPDH, DNA repair"}, "[6]": {"settings": "normalized for GAPDH, NfkB pathways"}, "[7]": {"settings": "normalized for GAPDH, Ras pathways"}, "[8]": {"settings": "normalized for GAPDH, TGF patways"}, "[9]": {"settings": "normalized for GAPDH, TGF-patways"}, "[10]": {"settings": "normalized for GAPDH, angiogenesis"}, "[11]": {"settings": "normalized for GAPDH, apoptosis"}, "[12]": {"settings": "normalized for GAPDH, cell cycle"}, "[13]": {"settings": "normalized for GAPDH, inflammation"}, "[14]": {"settings": "normalized for GAPDH, proliferation"}}}
{"smiles": "C=C(C)[C@@H]1CCC(C)=C[C@H]1c1c(O)cc(CCCCC)cc1O", "note": "[CBD, 2-[(1R,6R)-3-methyl-6-prop-1-en-2-ylcyclohex-2-en-1-yl]-5-pentylbenzene-1,3-diol]", "values": [{"measurement": "GAPDH relative expression", "setting": "[1]; GAPDH is the normalizer", "result": 1.00}, {"measurement": "PK3CB relative expression", "setting": "[1]; [3]", "result": 0.10}, {"measurement": "PK3CD relative expression", "setting": "[1]; [3]", "result": 0.08}, {"measurement": "AKT1 relative expression", "setting": "[1]; [4]", "result": 0.10}, {"measurement": "AKT2 relative expression", "setting": "[1]; [4]", "result": 0.54}, {"measurement": "AKT3 relative expression", "setting": "[1]; [4]", "result": 0.00}, {"measurement": "IGF1 relative expression", "setting": "[1]; [4]", "result": 0.00}, {"measurement": "PK3CA relative expression", "setting": "[1]; [4]", "result": 0.03}, {"measurement": "PK3R1 relative expression", "setting": "[1]; [4]", "result": 0.04}, {"measurement": "BRCA2 relative expression", "setting": "[1]; [5]", "result": 0.16}, {"measurement": "MDM2 relative expression", "setting": "[1]; [5]", "result": 0.04}, {"measurement": "TP53 relative expression", "setting": "[1]; [5]", "result": 0.22}, {"measurement": "HSP90AA1 relative expression", "setting": "[1]; normalized for GAPDH, Heat sock protein", "result": 0.42}, {"measurement": "NFKB1 relative expression", "setting": "[1]; [6]", "result": 0.04}, {"measurement": "NFKB2 relative expression", "setting": "[1]; [6]", "result": 0.15}, {"measurement": "REL relative expression", "setting": "[1]; [6]", "result": 0.11}, {"measurement": "RELA relative expression", "setting": "[1]; [6]", "result": 0.06}, {"measurement": "RELB relative expression", "setting": "[1]; [6]", "result": 0.26}, {"measurement": "RHOA relative expression", "setting": "[1]; [6]", "result": 0.34}, {"measurement": "RHOB relative expression", "setting": "[1]; [6]", "result": 0.04}, {"measurement": "BRAF relative expression", "setting": "[1]; [7]", "result": 0.22}, {"measurement": "E2F1 relative expression", "setting": "[1]; [7]", "result": 0.15}, {"measurement": "E2F3 relative expression", "setting": "[1]; [7]", "result": 0.08}, {"measurement": "E2F4 relative expression", "setting": "[1]; [7]", "result": 0.19}, {"measurement": "EGF relative expression", "setting": "[1]; [7]", "result": 0.00}, {"measurement": "EGFR relative expression", "setting": "[1]; [7]", "result": 0.21}, {"measurement": "ELK1 relative expression", "setting": "[1]; [7]", "result": 0.09}, {"measurement": "ERBB2 relative expression", "setting": "[1]; [7]", "result": 0.02}, {"measurement": "GRB2 relative expression", "setting": "[1]; [7]", "result": 0.13}, {"measurement": "HBEGF relative expression", "setting": "[1]; [7]", "result": 0.13}, {"measurement": "KRAS relative expression", "setting": "[1]; [7]", "result": 0.09}, {"measurement": "MAP2K1 relative expression", "setting": "[1]; [7]", "result": 0.00}, {"measurement": "MAP2K2 relative expression", "setting": "[1]; [7]", "result": 0.08}, {"measurement": "MAPK1 relative expression", "setting": "[1]; [7]", "result": 0.07}, {"measurement": "MAPK3 relative expression", "setting": "[1]; [7]", "result": 0.01}, {"measurement": "RAF1 relative expression", "setting": "[1]; [7]", "result": 0.01}, {"measurement": "RB1 relative expression", "setting": "[1]; [7]", "result": 0.06}, {"measurement": "SOS1 relative expression", "setting": "[1]; [7]", "result": 0.06}, {"measurement": "TGFB2 relative expression", "setting": "[1]; [8]", "result": 0.08}, {"measurement": "TGFB3 relative expression", "setting": "[1]; [8]", "result": 0.00}, {"measurement": "TGFBR1 relative expression", "setting": "[1]; [8]", "result": 0.02}, {"measurement": "SMAD2 relative expression", "setting": "[1]; [9]", "result": 0.06}, {"measurement": "SMAD3 relative expression", "setting": "[1]; [9]", "result": 0.18}, {"measurement": "SMAD4 relative expression", "setting": "[1]; [9]", "result": 0.07}, {"measurement": "TGFA relative expression", "setting": "[1]; [9]", "result": 0.64}, {"measurement": "TGFB1 relative expression", "setting": "[1]; [9]", "result": 0.06}, {"measurement": "TGFBR2 relative expression", "setting": "[1]; [9]", "result": 0.00}, {"measurement": "FIGF relative expression", "setting": "[1]; [10]", "result": 0.11}, {"measurement": "VEGFA relative expression", "setting": "[1]; [10]", "result": 0.02}, {"measurement": "VEGFB relative expression", "setting": "[1]; [10]", "result": 0.06}, {"measurement": "VEGFC relative expression", "setting": "[1]; [10]", "result": 0.03}, {"measurement": "BCL2L1 relative expression", "setting": "[1]; [11]", "result": 0.26}, {"measurement": "BCL2 relative expression", "setting": "[1]; [11]", "result": 0.00}, {"measurement": "BIRC5 relative expression", "setting": "[1]; [11]", "result": 0.11}, {"measurement": "CCNA2 relative expression", "setting": "[1]; [12]", "result": 0.01}, {"measurement": "CCNB1 relative expression", "setting": "[1]; [12]", "result": 0.37}, {"measurement": "CCND1 relative expression", "setting": "[1]; [12]", "result": 0.11}, {"measurement": "CCND2 relative expression", "setting": "[1]; [12]", "result": 0.00}, {"measurement": "CCNE1 relative expression", "setting": "[1]; [12]", "result": 0.10}, {"measurement": "CCNE2 relative expression", "setting": "[1]; [12]", "result": 0.12}, {"measurement": "CDC42 relative expression", "setting": "[1]; [12]", "result": 0.05}, {"measurement": "CDK2 relative expression", "setting": "[1]; [12]", "result": 0.15}, {"measurement": "CDK4 relative expression", "setting": "[1]; [12]", "result": 0.25}, {"measurement": "CDKN1A relative expression", "setting": "[1]; [12]", "result": 0.04}, {"measurement": "CDKN1B relative expression", "setting": "[1]; [12]", "result": 0.11}, {"measurement": "CDKN2A relative expression", "setting": "[1]; [12]", "result": 0.26}, {"measurement": "CDKN2B relative expression", "setting": "[1]; [12]", "result": 0.42}, {"measurement": "CDKN2C relative expression", "setting": "[1]; [12]", "result": 0.03}, {"measurement": "CDKN2D relative expression", "setting": "[1]; [12]", "result": 0.04}, {"measurement": "IL6 relative expression", "setting": "[1]; [13]", "result": 0.00}, {"measurement": "JAK1 relative expression", "setting": "[1]; [13]", "result": 0.27}, {"measurement": "JAK2 relative expression", "setting": "[1]; [13]", "result": 0.01}, {"measurement": "JAK3 relative expression", "setting": "[1]; [13]", "result": 0.01}, {"measurement": "STAT1 relative expression", "setting": "[1]; [13]", "result": 0.11}, {"measurement": "STAT2 relative expression", "setting": "[1]; [13]", "result": 0.04}, {"measurement": "STAT3 relative expression", "setting": "[1]; [13]", "result": 0.06}, {"measurement": "STAT6 relative expression", "setting": "[1]; [13]", "result": 0.79}, {"measurement": "STATSB relative expression", "setting": "[1]; [13]", "result": 0.03}, {"measurement": "MMP1 relative expression", "setting": "[1]; normalized for GAPDH, invasion", "result": 0.00}, {"measurement": "MMP2 relative expression", "setting": "[1]; normalized for GAPDH, invasion", "result": 0.07}, {"measurement": "MMP3 relative expression", "setting": "[1]; normalized for GAPDH, invasion", "result": 0.00}, {"measurement": "MMP7 relative expression", "setting": "[1]; normalized for GAPDH, invasion", "result": 0.01}, {"measurement": "MMP9 relative expression", "setting": "[1]; normalized for GAPDH, invasion", "result": 0.01}, {"measurement": "PTGS2 relative expression", "setting": "[1]; normalized for GAPDH, invasion", "result": 0.00}, {"measurement": "RAC1 relative expression", "setting": "[1]; normalized for GAPDH, invasion", "result": 0.11}, {"measurement": "RAC2 relative expression", "setting": "[1]; normalized for GAPDH, invasion", "result": 0.01}, {"measurement": "KIT relative expression", "setting": "[1]; [14]", "result": 0.00}, {"measurement": "NOTCH1 relative expression", "setting": "[1]; [14]", "result": 0.02}, {"measurement": "SRC relative expression", "setting": "[1]; [14]", "result": 0.03}, {"measurement": "viability at 1.9 µg/mL", "setting": "PANC-1 cell line", "result": "86.5 ± 7.1", "unit": "%"}, {"measurement": "viability at 3.8 µg/mL", "setting": "PANC-1 cell line", "result": "66.4 ± 5.5", "unit": "%"}, {"measurement": "viability at 7.6 µg/mL", "setting": "PANC-1 cell line", "result": "13.1 ± 1.1", "unit": "%"}, {"measurement": "viability at 15.2 µg/mL", "setting": "PANC-1 cell line", "result": "7.9 ± 0.3", "unit": "%"}, {"measurement": "viability at 1.9 µg/mL", "setting": "[2]; CBD 1.9 micrograms/ml", "result": "100 ± 7.1", "unit": "%"}, {"measurement": "viability at 3.8 µg/mL", "setting": "[2]; CBD 3.8 micrograms/ml", "result": "100 ± 5.5", "unit": "%"}, {"measurement": "viability at 7.6 µg/mL", "setting": "[2]; CBD 7.6 micrograms/ml", "result": "97 ± 10.1", "unit": "%"}, {"measurement": "viability at 15.2 µg/mL", "setting": "[2]; CBD 15.2 micrograms/ml", "result": "65.2 ± 4.3", "unit": "%"}]}
